From US6011013A, “Contraceptive compositions and methods” (Oregon Health Sciences University, priority 1998, dated 2000)

How the values were obtained:
[1] = system: bovine caudal epididymal sperm; assay: Sperm motility by computer-automated sperm motility analysis (CASMA), Forward Motility Index; format: cell-based
Procedure: (A) Sperm were incubated in buffer A containing s-Ht31 at 5 μM (circle), 10 μM (square) or 50 μM (diamond) or a control peptide, S-Ht31-P at 50 μM (cross). Motility was assessed at the times indicated by computer-automated sperm motility analysis (CASMA) as described in Experimental Procedures. (B) Sperm were incubated for 5 min in buffer A containing increasing concentrations of S-Ht31 (diamonds) or control peptide S-Ht31-P (triangle) and motility was assessed.
(A) Bovine caudal epididymal sperm were suspended in buffer A supplemented with 2 mM calcium (+Calcium) or 2 mM EGTA (-Calcium). Motility was assessed by CASMA at 5, 30 and 60 min following addition of either water (control) or 10 μM s-Ht31. (B) Sperm were incubated in buffer A containing 2 mM calcium and 50 mM bicarbonate (where indicated). Motility was assessed at 5, 30 and 60 min following addition of either water (control) or 10 μM s-Ht31.
(§1) (A). Bovine caudal and caput sperm were incubated in buffer A in the presence or absence of 50 μM CDA and/or 50 μM H-89. When sperm were treated with both CDA and H-89, the H-89 was added 15 min prior to CDA. Motility was assessed by CASMA at 15 min following treatment. (B) Bovine sperm were incubated as described for A and then assessed for PKA activity. Where indicated, 10 μM cAMP was added to the PKA assay.
Sperm Preparation. […]
Sperm Motility Measurement. Head motility parameters were determined as previously described (Vijayaraghavan et al., Biol. Reprod 54:709-718, 1996; Stephens et al., Biol. Reprod. 38:577-586, 1988). […] After bulk fluid movement had subsided, six different locations on the slide were recorded. The videotaped segments were analyzed by a computerized image-analysis system (CASMA) as previously described (Vijayaraghavan et al., Biol. Reprod. 54:709-718, 1996; Stephens et al., Biol. Reprod. 38:577-586, 1988). […] FMI is a product of percent motile (%M, percent of sperm moving at velocity greater than […]) and average velocity (Va, the five-point smoothed average of the head positions through at least 20 of the 30 frames analyzed).

PKA = PKA activity of sperm treated whole, then washed and lysed; format: cell-based, bovine; settings: 50 μM
Procedure: as §1
PKA Activity PKA was assayed as previously described (Carr et al., J. Biol. Chem. 268:20729-20732, 1993) with minor changes. Whole caput or caudal sperm were treated with 2-chloro-2-deoxyadenosine (50 μM), H-89 (50 μM), or both for 30 min. at 37° C. The sperm were then washed twice in ice cold homogenization buffer supplemented with protease inhibitors, benzamidine (10 mM), leupeptin (4 μg/ml), and N-tosyl-L-phenylalanine chloromethyl ketone (TPCK) (100 μM), and sonicated for one min. Reaction mixtures (20 uL total) contained 250 μM kemptide, 250 μM (γ-^32 P)ATP, 25 mM Na3 VO4, 50 mM 3-[N-morpholino]propanesulfonic acid (MOPS) (pH=7.0), 10 mM MgCl2, 0.25 mg/ml BSA and where indicated, 10 μM cAMP. Assays were initiated by addition of labeled ATP, incubated for 2 min at 30° C., and stopped by addition of 30 μL of 1N HCl. […] The papers were then analyzed by Cerenkov counting. […]

sperm = format: cell-based, bovine
Procedure: To determine if S-Ht31 affects sperm viability or structural integrity, the vital dyes SYBR-green and rhodamine 123 were added to sperm before and after treatment with S-Ht31. Only viable, intact cells take up these dyes.

bovine caput sperm = assay: Caput sperm motility by CASMA; format: cell-based; settings: 50 μM H-89 added 15 min prior to 50 μM CDA
Procedure: (A). Bovine caudal and caput sperm were incubated in buffer A in the presence or absence of 50 μM CDA and/or 50 μM H-89. When sperm were treated with both CDA and H-89, the H-89 was added 15 min prior to CDA. Motility was assessed by CASMA at 15 min following treatment. (B) Bovine sperm were incubated as described for A and then assessed for PKA activity. Where indicated, 10 μM cAMP was added to the PKA assay. Sperm Preparation. Testes from mature bulls with intact tunica were obtained from a local slaughter house and sperm from caput or caudal epididymis were isolated and washed as previously described (Vijayaraghavan et al., Biol. Reprod. 32:489-500, 1985). […] Head motility parameters were determined as previously described (Vijayaraghavan et al., Biol. Reprod 54:709-718, 1996; Stephens et al., Biol. Reprod. 38:577-586, 1988). […] After bulk fluid movement had subsided, six different locations on the slide were recorded. The videotaped segments were analyzed by a computerized image-analysis system (CASMA) as previously described (Vijayaraghavan et al., Biol. Reprod. 54:709-718, 1996; Stephens et al., Biol. Reprod. 38:577-586, 1988). […] FMI is a product of percent motile (%M, percent of sperm moving at velocity greater than […]) and average velocity (Va, the five-point smoothed average of the head positions through at least 20 of the 30 frames analyzed).

**Q.** What does the source list for `Nc1nc(Cl)nc2c1ncn2[C@H]1C[C@H](O)[C@@H](CO)O1` [CDA, 2-chloro-2-deoxyadenosine]?
**A.** sperm motility under conditions where sperm PKA is inhibited ([1]; with H-89): still induce or stimulate sperm motility; increase of basal PKA activity (PKA; both caudal and caput sperm, absence of cAMP): approximately 60%

**Q.** With `C[C@@H]1CC[C@@]2(OC1)O[C@H]1[C@@H](O)[C@H]3[C@@H]4CC[C@H]5C[C@@H](O[C@@H]6O[C@H](CO)[C@H](O[C@@H]7O[C@H](CO)[C@@H](O)[C@H](O[C@@H]8OC[C@@H](O)[C@H](O)[C@H]8O)[C@H]7O[C@@H]7O[C@H](CO)[C@H](O)[C@H](O[C@@H]8O[C@H](CO)[C@@H](O)[C@H](O)[C@H]8O)[C@H]7O)[C@H](O)[C@H]6O)[C@H](O)C[C@]5(C)[C@H]4CC[C@]3(C)[C@H]1[C@@H]2C` [digitonin] as the molecule, how does the “release of dyes from sperm loaded with BCECF or Fura 2 (plasma membrane integrity)” value (sperm) read?
**A.** caused release of these dyes

**Q.** With `CCCCCCCCCCCCCCCCCC(=O)N[C@@H](CC(=O)O)C(=O)N[C@@H](CC(C)C)C(=O)N[C@H](C(=O)N[C@@H](CCC(=O)O)C(=O)N[C@@H](CCC(=O)O)C(=O)N[C@@H](C)C(=O)N[C@@H](C)C(=O)N[C@@H](CO)C(=O)N[C@@H](CCCNC(=N)N)C(=O)N[C@H](C(=O)N[C@H](C(=O)N[C@@H](CC(=O)O)C(=O)N[C@@H](C)C(=O)N[C@H](C(=O)N[C@H](C(=O)N[C@@H](CCC(=O)O)C(=O)N[C@@H](CCC(N)=O)C(=O)N[C@H](C(=O)N[C@@H](CCCCN)C(=O)N[C@@H](C)C(=O)N[C@@H](C)C(=O)NCC(=O)N[C@@H](C)C(=O)N[C@@H](Cc1ccc(O)cc1)C(=O)O)C(C)C)[C@@H](C)CC)C(C)C)C(C)C)[C@@H](C)CC)[C@@H](C)CC` [s-Ht31] as the molecule, how does the “release of dyes from sperm loaded with BCECF or Fura 2 (plasma membrane integrity)” value (sperm) read?
**A.** did not compromise the integrity of the plasma membrane

**Q.** And the “sperm viability and plasma membrane integrity (uptake of vital dyes SYBR-green and rhodamine 123)” value (sperm)?
**A.** did not decrease viability or disrupt the integrity of the sperm plasma membrane

**Q.** Which results are given for `O=S(=O)(NCCNCC=Cc1ccc(Br)cc1)c1cccc2cnccc12` [H-89, N-[2-(p-bromocinnamylamino)ethyl]-5-isoquinoline-sulfonamide]?
**A.** effect of preincubation on motility induction by CDA in caput sperm (bovine caput sperm): unaffected; effect on sperm motility stimulated by CDA ([1]; 50 μM H-89, 50 μM CDA): had no effect; inhibition at 50 µM ([1]; Bos taurus, Sperm, 50 μM, read-out: inhibition of basal sperm motility): ≤ 50%; effect on cellular PKA activity (PKA; sperm washed before lysis): strongly inhibited PKA activity
